Measured values as given in patent publication US6465457B1 (priority 1991, dated 2002).
Read-outs that look alike come from different tables or passages of the source.

Assays:
Format in all cases: in vivo
[1] = tested on: Erysiphe graminis tritici (Wheat); experiment: Foliar fungal disease test on plants: Erysiphe graminis tritici (Wheat); details: plants inoculated 24 hours before treatment
Septoria nodorum (Wheat) = experiment: Foliar fungal disease test on plants: Septoria nodorum (Wheat); details: one or two days before inoculation
[2] = tested on: Puccinia recondita (Wheat); experiment: Foliar fungal disease test on plants: Puccinia recondita (Wheat)
[3] = tested on: Plasmopara viticola (Vines); experiment: Foliar fungal disease test on plants: Plasmopara viticola (Vines); details: one or two days before inoculation
[4] = tested on: Phytophthora infestans (Tomatoes); details: one or two days before inoculation
[5] = tested on: Pyricularia oryzae (Rice); details: one or two days before inoculation
[6] = tested on: Venturia inaequalis (Apples); experiment: Foliar fungal disease test on plants: Venturia inaequalis (Apples); details: one or two days before inoculation
[7] = tested on: Thanatephorus cucumeries (Rice); experiment: Foliar fungal disease test on plants: Thanatephorus cucumeries (Rice); details: one or two days before inoculation
[8] = 100 ppm a.i. foliar spray or root drench (approx. 40 ppm in dry soil)
[9] = 100 ppm a.i. foliar spray or root drench, plants inoculated with Puccinia recondita 48 hours before treatment
[10] = 10 ppm foliar spray only, plants inoculated with Puccinia recondita 48 hours before treatment

Row | SMILES | POCO (Percentage of Control) disease level, Erysiphe graminis tritici (Wheat) [1, 8] | POCO (Percentage of Control) disease level, Septoria nodorum (Wheat) (Septoria nodorum (Wheat); [8]) | POCO (Percentage of Control) disease level, Puccinia recondita (Wheat) [2, 9] | POCO (Percentage of Control) disease level, Plasmopara viticola (Vines) [3, 8] | POCO (Percentage of Control) disease level, Phytophthora infestans (Tomatoes) [4, 8] | POCO (Percentage of Control) disease level, Pyricularia oryzae (Rice) [5, 8] | POCO (Percentage of Control) disease level, Venturia inaequalis (Apples) [6, 8] | POCO (Percentage of Control) disease level, Thanatephorus cucumeries (Rice) [7, 8] | POCO (Percentage of Control) disease level, Erysiphe graminis tritici (Wheat) ([1]; 10 ppm foliar spray only) | POCO (Percentage of Control) disease level, Septoria nodorum (Wheat) (Septoria nodorum (Wheat); 10 ppm foliar spray only) | POCO (Percentage of Control) disease level, Puccinia recondita (Wheat) ([2]; 10 ppm foliar spray only, one or two days before inoculation) | POCO (Percentage of Control) disease level, Plasmopara viticola (Vines) ([3]; 10 ppm foliar spray only) | POCO (Percentage of Control) disease level, Phytophthora infestans (Tomatoes) ([4]; 10 ppm foliar spray only) | POCO (Percentage of Control) disease level, Pyricularia oryzae (Rice) ([5]; 10 ppm foliar spray only) | POCO (Percentage of Control) disease level, Venturia inaequalis (Apples) ([6]; 10 ppm foliar spray only) | POCO (Percentage of Control) disease level, Thanatephorus cucumeries (Rice) ([7]; 10 ppm foliar spray only) | POCO (Percentage of Control) disease level, Puccinia recondita (Wheat) [2, 10] | POCO (Percentage of Control) disease level, Puccinia recondita (Wheat) ([2]; 100 ppm a.i. foliar spray or root drench (approx. 40 ppm in dry soil), one or two days before inoculation)
1 | COC=C(C(=O)OC)c1ccccc1COC(=O)N(Cc1ccccc1)c1cccc(F)c1 [8 (97)] | 90 (90 and 94 = 60.1-100% disease present) | 90 (90 and 94 = 60.1-100% disease present) | 90+ (90 and 94 = 60.1-100% disease present) | 0 (0 = 0% disease present) | 90 (90 and 94 = 60.1-100% disease present) | 30 (30 = 20.1-30% disease present) | 30 (30 = 20.1-30% disease present) | 90 (90 and 94 = 60.1-100% disease present) | – | – | – | – | – | – | – | – | – | –
2 | COC=C(C(=O)OC)c1ccccc1COC(=O)Nc1ccccc1C(F)(F)F [18 (1)] | 90 (90 and 94 = 60.1-100% disease present) | 90 (90 and 94 = 60.1-100% disease present) | 90+ (90 and 94 = 60.1-100% disease present) | 0 (0 = 0% disease present) | 90 (90 and 94 = 60.1-100% disease present) | 60 (60 = 30.1-60% disease present) | 3 (3 = 1.1-3% disease present) | 90 (90 and 94 = 60.1-100% disease present) | – | – | – | – | – | – | – | – | – | –
3 | CO/C=C(/C(=O)OC)c1ccccc1COC(=O)NN1CCOCC1 [3 (133), (E)-methyl 3-methoxy-2-[2-(morpholinocarbamoyloxymethyl)phenyl]propenoate] | 90 (90 and 94 = 60.1-100% disease present) | 90 (90 and 94 = 60.1-100% disease present) | 90+ (90 and 94 = 60.1-100% disease present) | 90 (90 and 94 = 60.1-100% disease present) | 90 (90 and 94 = 60.1-100% disease present) | 90 (90 and 94 = 60.1-100% disease present) | 60 (60 = 30.1-60% disease present) | 90 (90 and 94 = 60.1-100% disease present) | – | – | – | – | – | – | – | – | – | –
4 | COC=C(C(=O)OC)c1ccccc1COC(=S)Nc1cccc(F)c1 [8 (6)] | – | – | – | – | – | – | – | – | 90 (90 and 94 = 60.1-100% disease present) | 90 (90 and 94 = 60.1-100% disease present) | 90 (90 and 94 = 60.1-100% disease present) | 60 (60 = 30.1-60% disease present) | 90 (90 and 94 = 60.1-100% disease present) | 30 (30 = 20.1-30% disease present) | 60 (60 = 30.1-60% disease present) | 90 (90 and 94 = 60.1-100% disease present) | – | –
5 | COC=C(C(=O)OC)c1ccccc1COC(=S)Nc1cccc(OC)c1 [7 (6)] | – | – | – | – | – | – | – | – | 0 (0 = 0% disease present) | 90 (90 and 94 = 60.1-100% disease present) | – | 60 (60 = 30.1-60% disease present) | 90 (90 and 94 = 60.1-100% disease present) | 10 (10 = 5.1-10% disease present) | 60 (60 = 30.1-60% disease present) | 30 (30 = 20.1-30% disease present) | 0+ (0 = 0% disease present) | –
6 | COC=C(C(=O)OC)c1ccccc1COC(=S)Oc1ccccc1 [5 (12)] | – | – | – | – | – | – | – | – | 60 (60 = 30.1-60% disease present) | 90 (90 and 94 = 60.1-100% disease present) | – | 3 (3 = 1.1-3% disease present) | 90 (90 and 94 = 60.1-100% disease present) | 60 (60 = 30.1-60% disease present) | 0 (0 = 0% disease present) | 60 (60 = 30.1-60% disease present) | 90+ (90 and 94 = 60.1-100% disease present) | –
7 | COC=C(C(=O)OC)c1ccccc1COC(=O)N(C)c1ccccc1C(F)(F)F [18 (2)] | 60 (60 = 30.1-60% disease present) | 90 (90 and 94 = 60.1-100% disease present) | 90+ (90 and 94 = 60.1-100% disease present) | 3 (3 = 1.1-3% disease present) | 90 (90 and 94 = 60.1-100% disease present) | 60 (60 = 30.1-60% disease present) | 3 (3 = 1.1-3% disease present) | 60 (60 = 30.1-60% disease present) | – | – | – | – | – | – | – | – | – | –
8 | COC=C(C(=O)OC)c1ccccc1COC(=O)Nc1ccc(F)c(F)c1 [28 (1)] | – | – | – | – | – | – | – | – | 90 (90 and 94 = 60.1-100% disease present) | 30 (30 = 20.1-30% disease present) | – | 30 (30 = 20.1-30% disease present) | 90 (90 and 94 = 60.1-100% disease present) | 0 (0 = 0% disease present) | 60 (60 = 30.1-60% disease present) | 90 (90 and 94 = 60.1-100% disease present) | 5+ (5 = 3.1-5% disease present) | –
9 | COC=C(C(=O)OC)c1ccccc1COC(=O)N(C)c1ccc(F)cc1 [13 (2)] | 0 (0 = 0% disease present) | 0 (0 = 0% disease present) | 0+ (0 = 0% disease present) | 0 (0 = 0% disease present) | 0 (0 = 0% disease present) | 0 (0 = 0% disease present) | 0 (0 = 0% disease present) | 0 (0 = 0% disease present) | – | – | – | – | – | – | – | – | – | –
10 | COC=C(C(=O)OC)c1ccccc1COC(=O)N(C)c1cccc(C(F)(F)F)c1 [2 (2)] | 0 (0 = 0% disease present) | 0 (0 = 0% disease present) | – | 0 (0 = 0% disease present) | 90 (90 and 94 = 60.1-100% disease present) | 5 (5 = 3.1-5% disease present) | 0 (0 = 0% disease present) | 30 (30 = 20.1-30% disease present) | – | – | – | – | – | – | – | – | – | 0 (0 = 0% disease present)
11 | COC=C(C(=O)OC)c1ccccc1COC(=O)Nc1ccccc1OC [16 (1)] | 90 (90 and 94 = 60.1-100% disease present) | 90 (90 and 94 = 60.1-100% disease present) | 90+ (90 and 94 = 60.1-100% disease present) | 0 (0 = 0% disease present) | 90 (90 and 94 = 60.1-100% disease present) | 20 (20 and 24 = 10.1-20% disease present) | 60 (60 = 30.1-60% disease present) | 90 (90 and 94 = 60.1-100% disease present) | – | – | – | – | – | – | – | – | – | –
